{"source": "patent US6780971B2", "about": "“Compositions for inhibiting the aggregation pathway of α-synuclein” (Panacea Pharmaceuticals, Inc., priority 2000, dated 2004)", "key": {"[1]": {"system": "BE-M17 cells expressing the human A53T α-synuclein cDNA", "test": "Aggregate formation in BE-M17 cells expressing A53T α-synuclein", "assay_type": "cell-based"}, "primary cortical neurons [2]": {"system": "primary cortical neurons", "test": "α-Synuclein aggregation in primary cortical neurons (immunoblot, video densitometry)", "assay_type": "cell-based, rat", "experimental": "Immunoblotting: Cells were harvested with SDS lysis solution (2% SDS, 10 mM Tris, pH 7.4, 2 mM β-glycerol phosphate, 1 μM AEBSF). The amount of protein was determined using the BCA assay (Pierce), […] per lane was run on 14% SDS polyacrylamide gels and transferred to nitrocellulose (200 mAmp, 12 hrs). The nitrocellulose was then incubated 1 hr in 5% milk/PBS, washed, incubated overnight in 1° antibody, washed, then incubated 3 hrs in peroxidase coupled 2° antibody and developed with chemiluminescent reagent (NEN).\n(§1) To test this, the inventors examined the ability of magnesium to inhibit α-synuclein aggregation in primary cortical neurons grown in cell culture. Primary cortical neurons were treated with 1 mM FeCl2 plus 0-1.5 mM MgCl2 for 3 days, the α-synuclein was immunublotted and the amount of aggregate determined by video densitometry. […] Doses as low as 0.5 mM of magnesium produced statistically significant reduction in formation of α-synuclein positive aggregates."}, "[3]": {"system": "BE-M17 neuroblastoma cells over-expressing wild type α-synuclein", "test": "α-Synuclein aggregation and inclusions in BE-M17 cells over-expressing wild type α-synuclein", "assay_type": "cell-based, human", "settings": "1 mM FeCl2 plus 50 μM dopamine plus 1 mM MgCl2, 3 days", "experimental": "Immunohistochemistry: For light microscopy, cells are fixed with 4% paraformaldehyde, washed, permeabilized by incubation for 30 min with 0.2% Triton-X 100, blocked with 5% dry milk/1 % goat serum/PBS, washed and then incubated overnight in 1° antibody (1:500). Development is with an ABC kit and 3′, 3′-diaminobenzidine as per manufacturer's directions (Vector, Burlingame, Calif.).\nas §1\nNext, whether magnesium also prevents formation of α-synuclein-positive inclusions in BE-M17 neurons stably over-expressing wildtype α-synuclein was investigated. The neurons were treated with 1 mM FeCl2 plus 50 μM dopamine plus 0 or 1 mM MgCl2 for 3 days, and then examined by immunocytochemistry using anti-α-synuclein and anti-ubiquitin antibodies."}, "A53T α-synuclein [4]": {"molecular_target": "T1, A53T α-synuclein (Homo sapiens, UniProt P37840, A53T)", "T1 construct": "His-6 (cleaved yes); made in house; host or cells: bacteria (IPTG-induced; Pro-Ex His 6 vector)", "test": "Tyrosine fluorescence assay of metal binding to A53T α-synuclein", "from_the_text": "We also examined how the A53T mutation in human α-synuclein affected binding of iron and magnesium. […] Previous studies have shown that A53T mutation changes the conformation of α-synuclein by increasing its helical content (Polymeropoulos et al., Science, 276:2045-7(1997)). These conformational changes might also reduce binding of magnesium to α-synuclein."}, "primary cortical neurons [5]": {"system": "primary cortical neurons", "test": "Ubiquitin-positive α-synuclein aggregates in primary cortical neurons (immunoprecipitation, anti-ubiquitin immunoblot)", "assay_type": "cell-based, rat", "settings": "0.3 mM iron and 50 μM dopamine, 3 days", "experimental": "The inventors also examined the amount of aggregates present using an antibody to ubiquitin. As set forth previously, the accumulation of high molecular weight ubiquitin adducts correlates with the formation of α-synuclein aggregates. Primary cortical neurons were treated as described above and the aggregates were immunoprecipitated with anti-α-synuclein antibody and immunoblotted with anti-ubiquitin antibody. An increase in ubiquitination of α-synuclein upon treatment with 0.3 mM iron and 50 μM dopamine for 3 days was observed. However, treating the cells with magnesium produced a statistically significant decrease in ubiquitin immunoreactivity with doses as low as 0.5 mM (n=3, P<0.0001). Thus, magnesium inhibits formation of ubiquitin positive α-synuclein aggregates in primary neurons."}, "A53T α-synuclein [6]": {"molecular_target": "T1, A53T α-synuclein", "test": "Iron-induced aggregation of recombinant A53T α-synuclein (immunoblot, video densitometry)", "assay_type": "biochemical", "settings": "0-3 mM FeCl2, 100 μM MgCl2, 24 hrs", "experimental": "We incubated recombinant A53T α-synuclein with 0-3 mM FeCl2 and 0 or 100 μM MgCl2 for 24 hrs, then immunoblotted the α-synuclein and quantified aggregation by video densitometry."}, "α-synuclein": {"molecular_target": "T2, α-synuclein (Homo sapiens, UniProt P37840)", "T2 construct": "His-6 (cleaved yes); made in house; host or cells: bacteria (IPTG-induced; Pro-Ex His 6 vector)", "test": "Tyrosine fluorescence assay of metal binding to α-synuclein", "settings": "magnesium co-incubated with iron", "experimental": "Because iron binds to other proteins that form aggregates and iron is known to accumulate in Parkinson's disease, iron might bind directly to α-synuclein. To confirm this hypothesis, the interaction of iron with α-synuclein was tested using tyrosine fluorescence as an indicator of iron binding. […] Fluorescence of tyrosine has been used to monitor binding of metals to β-amyloid [Garzon-Rodriguez W. et al., Bioorg. Med. Chem. Let., 9:2243-2248 (1999), which is hereby incorporated by reference]. A similar approach was taken to analyze binding of iron to α-synuclein. Tyrosine has a fluorescence emission spectrum that has a peak emission of 310 nm when excited at 280 nm, respectively (FIG. 2A). It was observed that binding of iron reduced the fluorescence of the tyrosines in α-synuclein. […] The Hill coefficient was 1.0 (R^2=1.0, P<0.0001), indicating one binding site for iron with no cooperativity (FIGS. 2A & B). α-Synuclein was also tested for binding to other metals, including CuCl2, ZnCl2 and MgCl2. Because the C-terminus of α-synuclein has a region with 7 glutamates and 4 aspartates, which together could chelate iron, we created a deletion construct lacking the last 27 amino acids on α-synuclein and analyzed binding of this construct.\nTo monitor the binding profiles of Fe(II) and Mg(II) to α-synuclein in vitro we used changes of tyrosine fluorescence. Tyrosine fluorescence is used as an indicator of changes in protein conformation or binding of metals. Excitation of tyrosine at 280 nm elicits fluorescence that peaks at 310 nm for monomeric tyrosine, and at 350-400 nm for tyrosinate or dimeric tyrosine. The fluorescence spectrum of α-synuclein yielded fluorescence peaks at 310 and 400 nm. The peak at 400 nm cannot be explained by the presence of dimeric tyrosine, due to dimerization of α-synuclein, because dimerization of α-synuclein decreases the fluorescence at 400 nm, and tends to eliminate the peak at 400 nm."}, "[7]": {"system": "BE-M17 neuroblastoma cells", "test": "Neuroprotection against FeCl2 plus dopamine, MTT assay", "settings": "0.8 mM MgCl2, 2 days", "protocol": "MTT and LDH toxicity assay: Cells were plated in 96 well dishes at 5000 cells/well in 100 μl growth medium. For the MTT assay, viability following 48 hrs of pharmacological treatment was analyzed by adding 0.5 mg/ml MTT (MTT, 3-[4,5-dimethylthiazol-2-yl]-2,5-diphenyltetrazolium bromide) and incubating at 37° C. for 3 hrs. Lysis buffer (100 μl of 20% SDS in 50% N, N-dimethylformamide) was then added and the plates are read at 540 nm after 24 hrs. For the lactate dehydrogenase (LDH) assay, viability following 24 hrs of pharmacological treatment was analyzed using MTS reagent and the Cytox 96 kit (Promega) according to manufacturer's directions."}, "[8]": {"system": "primary cultures of cortical neurons", "test": "Neuronal process length and inclusions in primary cultures of cortical neurons", "assay_type": "cell-based, rat", "settings": "0.3 mM FeCl2 plus 50 μM dopamine plus 1-2 mM magnesium, 3 days", "experimental": "How magnesium affected neurons from the central nervous system was also examined. Primary cultures of cortical neurons were treated with 0.3 mM FeCl2 plus 50 μM dopamine plus 0-2 mM MgCl2 for 3 days (a relatively low dose of iron was used to enable quantitation of neuronal processes). To quantify the amount of neuroprotection provided by magnesium, the percent of processes longer than 100 μm as a characteristic of cell viability was determined. […] Inclusions also formed in these neurons."}, "[9]": {"molecular_target": "T3, wildtype recombinant α-synuclein (Homo sapiens, UniProt P37840)", "T3 construct": "His-6 (cleaved yes); made in house; host or cells: bacteria (IPTG-induced; Pro-Ex His 6 vector)", "test": "Aggregation of recombinant wildtype α-synuclein (immunoblot, video densitometry, thioflavine-S)", "assay_type": "biochemical", "experimental": "Knowing that magnesium and iron induce opposing changes in α-synuclein tyrosine fluorescence, it is believed that binding of magnesium might convert α-synuclein to a conformation that resists aggregation perhaps by preventing β-pleated sheet formation. To test this, wildtype recombinant α-synuclein was incubated with 0-3 mM FeCl2 and 0 or 100 μM MgCl2 for 24 hrs at 37° C., then immunoblotting was performed for α-synuclein and quantified aggregation by video densitometry."}}, "note": "“Also recorded” adds a separate entry of the source."}
{"compound": "[Cl-].[Cl-].[Mg+2]", "note": "[magnesium, MgCl2]", "values": [{"measurement": "aggregate formation", "setting": "[1]", "result": "unable to inhibit aggregate formation"}, {"measurement": "lowest dose producing statistically significant reduction of α-synuclein positive aggregates", "setting": "primary cortical neurons [2]; 1 mM FeCl2, 3 days", "result": 0.5, "unit": "mM"}, {"measurement": "formation of high molecular weight α-synuclein aggregates", "setting": "primary cortical neurons [2]; 1 mM FeCl2, magnesium 0.2 to 1.5 mM, 3 days", "result": "dose-dependent reduction"}, {"measurement": "α-synuclein-positive inclusions (immunocytochemistry)", "setting": "[3]", "result": "little accumulation of α-synuclein-positive inclusions"}, {"measurement": "effect of A53T mutation on binding to α-synuclein", "setting": "A53T α-synuclein [4]", "result": "abolish the interaction"}, {"measurement": "lowest dose producing statistically significant decrease in ubiquitin immunoreactivity", "setting": "primary cortical neurons [5]", "result": 0.5, "unit": "mM"}, {"measurement": "iron-induced aggregation of A53T α-synuclein", "setting": "A53T α-synuclein [6]", "result": "unable to inhibit iron-induced aggregation"}, {"measurement": "effect of co-incubation on iron-induced quenching of tyrosine fluorescence", "setting": "α-synuclein", "result": "did not prevent iron-induced quenching"}, {"measurement": "increase in cell survival versus Fe2+/dopamine alone", "setting": "[7]; control (vector) cell line", "result": 1.3, "unit": "fold"}, {"measurement": "increase in cell survival versus Fe2+/dopamine alone", "setting": "[7]; wildtype α-synuclein cell line", "result": 2.4, "unit": "fold"}, {"measurement": "formation of α-synuclein-positive inclusions", "setting": "[8]", "result": "did not exhibit any formation of α-synuclein-positive inclusions"}, {"measurement": "loss of neuronal processes over 100 μm", "setting": "[8]", "result": 20, "unit": "%"}, {"measurement": "iron-induced formation of high molecular weight aggregates of α-synuclein", "setting": "[9]; 0-3 mM FeCl2, 100 μM (0.1 mM) MgCl2, 24 hrs, 37° C.", "result": "striking reduction in formation of high molecular weight aggregates; also recorded: inhibits iron-induced aggregation"}, {"measurement": "spontaneous aggregation of α-synuclein", "setting": "[9]; separate experiments, no iron", "result": "inhibited spontaneous aggregation"}, {"measurement": "magnesium required to inhibit α-synuclein aggregation in vitro", "setting": "[9]; stated as MgSO4 clinical range", "result": "0.5 to 2", "unit": "mM"}]}
